Assay results from paper PMC2657875 (Biochemistry, 2008).
Like-named read-outs stand apart in the source and are kept apart here. Values belong to the compound of their own block, whether it stands above or below them.

Experiments:
human NAMPT [1] = target: T1, human NAMPT (Homo sapiens, UniProt P43490); assay: ADP/ATP isotope exchange catalyzed by NAMPT; assay type: biochemical; conditions: for concentration required for half-maximal exchange activity: ADP/ATP exchange, 0.6 µM enzyme
human NAMPT [2] = target: T1, human NAMPT; assay: Stimulated ATPase activity of NAMPT; assay type: biochemical; conditions: 1 mM compound, 2 mM ATP; for ATP hydrolysis rate (ATPase activity): […] enzyme
human NAMPT [3] = target: T1, human NAMPT; assay: Inhibition of ATP-coupled NMN synthesis; assay type: biochemical
human NAMPT [4] = target: T1, human NAMPT; assay: Inhibition of non ATP-coupled NMN synthesis; assay type: biochemical
human NAMPT [5] = target: T1, human NAMPT; assay: NAMPT kinetic parameters without ATP; assay type: biochemical; conditions: non ATP-coupled NMN synthesis
human NAMPT [6] = target: T1, human NAMPT; assay: NAMPT kinetic parameters with ATP; assay type: biochemical
human NAMPT [7] = target: T1, human NAMPT; conditions: continuous fluorometric coupled assay, with ATP (2.5 mM)
[8] = system: human vascular smooth muscular cells; conditions: cited from earlier work
[9] = cited from earlier work
[10] = system: Salmonella typhimurium NAPT; conditions: cited from earlier work

T1 sequence (P43490 whole entry): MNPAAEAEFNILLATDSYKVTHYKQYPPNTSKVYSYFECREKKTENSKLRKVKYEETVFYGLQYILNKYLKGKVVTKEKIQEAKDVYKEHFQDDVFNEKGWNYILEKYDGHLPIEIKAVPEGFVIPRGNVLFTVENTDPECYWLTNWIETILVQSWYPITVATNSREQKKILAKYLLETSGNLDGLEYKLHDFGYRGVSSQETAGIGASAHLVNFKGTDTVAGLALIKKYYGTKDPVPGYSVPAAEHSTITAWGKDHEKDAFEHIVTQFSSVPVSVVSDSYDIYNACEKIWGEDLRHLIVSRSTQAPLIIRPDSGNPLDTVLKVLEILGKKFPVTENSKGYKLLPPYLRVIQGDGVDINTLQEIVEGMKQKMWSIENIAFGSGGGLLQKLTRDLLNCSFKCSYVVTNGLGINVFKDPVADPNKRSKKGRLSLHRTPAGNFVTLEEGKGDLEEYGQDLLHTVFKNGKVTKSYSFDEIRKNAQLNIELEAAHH

Structure (SMILES): Nc1ncnc2c1ncn2[C@@H]1O[C@H](COP(=O)(O)OP(=O)(O)O)[C@@H](O)[C@H]1O [ADP]
- concentration required for half-maximal exchange activity (human NAMPT [1]): 0.44 ± 0.05 mM

Structure (SMILES): NC(=O)C1=CN([C@@H]2O[C@H](COP(=O)(O)OP(=O)(O)OC[C@H]3O[C@@H](n4cnc5c(N)ncnc54)[C@H](O)[C@@H]3O)[C@@H](O)[C@H]2O)C=CC1 [NADH]
- Ratio Km/Ki (NAM) (human NAMPT [3]; 2.5 mM ATP): < 1
- Ratio Km/Ki (PRPP) (human NAMPT [3]; 2.5 mM ATP): 3
- Ki (human NAMPT [3]; read-out: Ki versus NAM, 2.5 mM ATP): 3200 ± 200 nM
- Ki (human NAMPT [3]; read-out: Ki versus PRPP, 2.5 mM ATP): 220 ± 20 nM
- Ki (human NAMPT [4]; read-out: Ki versus NAM, non ATP-coupled NMN synthesis, competitive vs NAM): > 100000 nM

Structure (SMILES): Nc1ncnc2c1ncn2[C@@H]1O[C@H](COP(=O)(O)OP(=O)(O)OP(=O)(O)O)[C@@H](O)[C@H]1O [ATP]
- concentration required for half-maximal exchange activity (human NAMPT [1]): 2.2 ± 0.2 mM
- Km (human NAMPT [6]; ATP-coupled NMN synthesis): 7400 ± 1500 µM
- concentration above which NMN synthesis is inhibited (human NAMPT [6]; ATP-coupled NMN synthesis): above 4 mM

Structure (SMILES): O=C(/C=C/c1cccnc1)NCCCCC1CCN(C(=O)c2ccccc2)CC1 [FK866, (E)-N-[4-(1-benzoylpiperidin-4-yl)butyl]-3-(pyridin-3-yl) acrylamide]
- NAD+ levels [8]: low levels of NAD^+
- SIRT1 activity [8]: decrease of SIRT1 activity
- binding to plasma proteins ([9]; clinical trials): substantial drug binding to plasma proteins
- bioavailability ([9]; clinical trials): low bioavailability
- intravenous clearance ([9]; clinical trials): rapid intravenous clearance
- objective responses ([9]; continuous intravenous infusions over 96 h for a period of 4 weeks): no objective responses

Structure (SMILES): O=P(O)(O)OC[C@H]1O[C@H](OP(=O)(O)OP(=O)(O)O)[C@H](O)[C@@H]1O [PRPP, α-D-5-phosphoribosyl-1-pyrophosphate]
- effect on ADP/ATP exchange (human NAMPT [1]; 100 µM): near-complete inhibition
- Km (human NAMPT [5]; no Pi): 7.2 ± 0.6 µM
- Km (human NAMPT [5]; with Pi (2 mM phosphate)): 11.7 ± 0.8 µM
- Km ([10]; ATP-coupled NAMN synthesis): 22 ± 3.3 µM
- Km ([10]; non ATP-coupled NAMN synthesis): 4500 ± 2200 µM
- effect on ATP hydrolysis (human NAMPT [2]): inhibited ATP hydrolysis
- Km (human NAMPT [6]; ATP-coupled NMN synthesis): 0.63 ± 0.03 µM
- fold lowering of Km by ATP (human NAMPT [6]; ATP-coupled vs non ATP-coupled): 10 fold

Results, then the compound that gave them:

- effect on ADP/ATP exchange (human NAMPT [1]; 10 µM): retained the same exchange rate
Structure (SMILES): Nc1ncnc2c1ncn2[C@@H]1O[C@H](COP(=O)(O)OP(=O)(O)OP(=O)(O)OP(=O)(O)OP(=O)(O)OC[C@H]2O[C@@H](n3cnc4c(N)ncnc43)[C@H](O)[C@@H]2O)[C@@H](O)[C@H]1O [Ap5A, P^1,P^5-di(adenosine-5’-) pentaphosphate, reference compound]

- ATP hydrolysis rate (ATPase activity) (human NAMPT [2]): 2.6 min⁻¹
Structure (SMILES): O=P(O)(O)NP(=O)(O)O [PNP, imidodiphosphate, reference compound]

- Km (human NAMPT [5]; no Pi): 0.855 ± 0.022 µM
- Km (human NAMPT [5]; with Pi (2 mM phosphate)): 0.235 ± 0.017 µM
- Km (human NAMPT [6]; read-out: apparent Km (affinity), direct [14C]NAM assay with ATP, NAD+ present): 0.017 ± 0.002 µM
- Km (human NAMPT [7]): 0.057 ± 0.006 µM
Structure (SMILES): NC(=O)c1cccnc1 [NAM, nicotinamide]

- Ratio Km/Ki (NAM) (human NAMPT [3]; 2.5 mM ATP): < 1
- Ratio Km/Ki (PRPP) (human NAMPT [3]; 2.5 mM ATP): 5
- Ki (human NAMPT [3]; Ki versus NAM, 2.5 mM ATP): 2100 ± 200 nM
- Ki (human NAMPT [3]; Ki versus PRPP, 2.5 mM ATP): 140 ± 14 nM
- Ki (human NAMPT [4]): > 100000 nM
Structure (SMILES): NC(=O)c1ccc[n+]([C@@H]2O[C@H](COP(=O)([O-])OP(=O)(O)OC[C@H]3O[C@@H](n4cnc5c(N)ncnc54)[C@H](O)[C@@H]3O)[C@@H](O)[C@H]2O)c1 [NAD^+, nicotinamide adenine dinucleotide]

- ATP hydrolysis rate (ATPase activity) (human NAMPT [2]): 1.1 min⁻¹
Structure (SMILES): O=P(O)(O)OP(=O)(O)O [pyrophosphate]

- Km (human NAMPT [5]; read-out: Km of Pi): 180 ± 20 µM
Structure (SMILES): O=P(O)(O)O [Pi]
